From patent publication US20110237594A1, “FUNGICIDE HERETOCYCLYL-TRIAZINYL-AMINO DERIVATIVES” (priority 2008, published 2011)

Tested on: Cochliobolus miyabeanus
Test: Cochliobolus test (rice) / protective
Type: in vivo
Conditions: 250 ppm of active ingredient, evaluated 4 days after inoculation

With `CCC(C)Nc1cc(-c2ncnc(Nc3ccc(OC)nc3)n2)ccn1` (centres unmarked) [Compound A14] as the compound, how does the efficacy read?
Its efficacy is no less than 80%.

Tested on: Rhizoctonia solani
Test: Rhizoctonia test (rice) / protective
Type: in vivo
Conditions: 250 ppm of active ingredient, evaluated 4 days after inoculation
Method: To produce a suitable preparation of active compound, 1 part by weight of active compound is mixed with the stated amounts of solvent and emulsifier, and the concentrate is diluted with water to the desired concentration. To test for protective activity, young plants are sprayed with the preparation of active compound at the stated rate of application. One day after spraying, the plants are inoculated with a hypha of the causal agent of rice sheath blight (Rhizoctonia solani). The plants are then placed in an incubator at approximately 25° C. and a relative atmospheric humidity of approximately 100%.

For `CCC(C)Nc1cc(-c2ncnc(Nc3ccc(OC)nc3)n2)ccn1` (centres unmarked) [Compound A14], which efficacy is on record?
The efficacy was no less than 80%.

Tested on: Botrytis cinerea
Test: In vivo test on Botrytis cinerea (grey mould)
Conditions: gherkin plants, sprayed 24 hours before contamination, dose 500 ppm, grading 5/7 days after contamination
Method: Plants, used as controls, are treated with an aqueous solution not containing the active material. After 24 hours, the plants are contaminated by depositing drops of an aqueous suspension of Botrytis cinerea spores (150,000 spores per ml) on upper surface of the leaves. The spores are collected from a 15-day-old culture and are suspended in a nutrient solution composed of: • 20 g/L of gelatine; • 50 g/L of D-fructose; • 2 g/L of NH4NO3; • 1 g/L of KH2PO4. The contaminated cucumber plants are settled for 5/7 days in a climatic room at 15-11° C. […] Grading is carried out 5/7 days after the contamination, in comparison with the control plants. Under these conditions, good (at least 70%) or total protection is observed at a dose of 500 ppm with the following compound: A14

For `CCC(C)Nc1cc(-c2ncnc(Nc3ccc(OC)nc3)n2)ccn1` (centres unmarked) [Compound A14], which “protection (good, at least 70%, or total)” value is on record?
The value was “at least 70%”.

Tested on: Pyricularia oryzae
Test: not given
Type: in vivo
Conditions: rice, protective, 250 ppm of active ingredient, evaluated 5 days after inoculation

With `CCC(C)Nc1cc(-c2ncnc(Nc3ccc(OC)nc3)n2)ccn1` (centres unmarked) [Compound A14] as the compound, how does the efficacy read?
Its efficacy is no less than 80%.

Tested on: not listed separately
Test: logP by HPLC on reversed phase columns (EEC directive 79/831 Annex V.A8)
Conditions: [c] LC-MS at pH 7.8, 0.001 molar ammonium hydrogen carbonate in water, gradient 10% to 95% acetonitrile

With `C=C(C)CNc1cc(-c2ncnc(Nc3ccc(OC)nc3)n2)ccn1` [Compound A6] as the compound, how does the Lop p read?
The Lop p was 2.57[c].

With `COc1ccc(Nc2ncnc(-c3ccnc(NCC(C)C)c3)n2)cn1` [Compound A2, N-(6-methoxypyridin-3-yl)-4-{2-[(2-methylpropyl)amino]pyridin-4-yl}-1,3,5-triazin-2-amine] as the compound, how does the Lop p read?
The Lop p was 2.52[c].

For `COc1ccc(Nc2ncnc(-c3ccnc(NCCOC(C)C)c3)n2)cn1` [Compound A10], which Lop p is on record?
The Lop p was 2.53[c].

With `COc1ccc(Nc2ncnc(-c3ccnc(NCC4CCCO4)c3)n2)cn1` (centres unmarked) [Compound A13] as the compound, how does the Lop p read?
Its Lop p is 2.17[c].

For `COc1ccc(Nc2ncnc(-c3ccnc(NC(C)CN(C)C)c3)n2)cn1` (centres unmarked) [Compound A5], which Lop p is on record?
Its Lop p is 1.45[c].

For `COc1ccc(Nc2ncnc(-c3ccnc(NCCCSC)c3)n2)cn1` [Compound A7], which Lop p is on record?
Its Lop p is 2.62[c].

For `COc1ccc(Nc2ncnc(-c3ccnc(NCCC(C)C)c3)n2)cn1` [Compound A11], which Lop p is on record?
The Lop p was 3.27[c].

For `CCC(C)Nc1cc(-c2ncnc(Nc3ccc(OC)nc3)n2)ccn1` (centres unmarked) [Compound A14], which Lop p is on record?
Its Lop p is 2.47[c].

For `COCC(C)Nc1cc(-c2ncnc(Nc3ccc(OC)nc3)n2)ccn1` (centres unmarked) [Compound A1], which Lop p is on record?
Its Lop p is 2.25[c];.

For `CCSCCNc1cc(-c2ncnc(Nc3ccc(OC)nc3)n2)ccn1` [Compound A4], which Lop p is on record?
The Lop p was 2.78[c].

For `CCC(O)CNc1cc(-c2ncnc(Nc3ccc(OC)nc3)n2)ccn1` (centres unmarked) [Compound A9], which Lop p is on record?
The Lop p was 1.97[c].

With `COc1ccc(Nc2ncnc(-c3ccnc(NCCSC)c3)n2)cn1` [Compound A12] as the compound, how does the Lop p read?
The Lop p was 2.44[c].

With `COc1ccc(Nc2ncnc(-c3ccnc(NCC(C)O)c3)n2)cn1` (centres unmarked) [Compound A8] as the compound, how does the Lop p read?
The Lop p was 1.7[c].

Same assay, conditions: unmarked values: LC-MS at pH 2.7, 0.1% formic acid in water / acetonitrile, gradient 10% to 95% acetonitrile

Which Lop p does the source give for `CN(CC1CCCO1)c1cc(-c2ncnc(Nc3ccsc3)n2)ccn1` (centres unmarked) [Compound A24] here?
Its Lop p is 1.59.

Which Lop p does the source give for `CN(C)c1cc(-c2ncnc(Nc3ccsc3)n2)ccn1` [Compound A35] here?
The Lop p was 1.22.

Which Lop p does the source give for `COC1CCCN(c2cc(-c3ncnc(Nc4ccsc4)n3)ccn2)C1` (centres unmarked) [Compound A25] here?
Its Lop p is 1.74.

For `Nc1cc(-c2ncnc(Nc3ccsc3)n2)ccn1` [Compound A20], which Lop p is on record?
The Lop p was 0.98.

Which Lop p does the source give for `CC(C)CCN(C)c1cc(-c2ncnc(Nc3ccsc3)n2)ccn1` [Compound A32] here?
The Lop p was 2.18.

Which Lop p does the source give for `COCCN(C)c1cc(-c2ncnc(Nc3ccsc3)n2)ccn1` [Compound A26] here?
The Lop p was 1.45.

With `CCC(COC)Nc1cc(-c2ncnc(Nc3ccsc3)n2)ccn1` (centres unmarked) [Compound A30] as the compound, how does the Lop p read?
The Lop p was 1.6.

With `CCN(CC)c1cc(-c2ncnc(Nc3ccsc3)n2)ccn1` [Compound A29] as the compound, how does the Lop p read?
Its Lop p is 1.57.

For `C=CCN(C)c1cc(-c2ncnc(Nc3ccsc3)n2)ccn1` [Compound A27], which Lop p is on record?
Its Lop p is 1.48.

For `COCCNc1cc(-c2ncnc(Nc3ccsc3)n2)ccn1` [Compound A18], which Lop p is on record?
The Lop p was 1.28.

With `CC(C)(C)OC(=O)Nc1cc(-c2ncnc(Nc3ccsc3)n2)ccn1` [Compound A19] as the compound, how does the Lop p read?
The Lop p was 3.39.

For `O=CNc1cc(-c2ncnc(Nc3ccsc3)n2)ccn1` [Compound A36], which Lop p is on record?
The Lop p was 1.9.

With `CN(CC(F)(F)F)c1cc(-c2ncnc(Nc3ccsc3)n2)ccn1` [Compound A23] as the compound, how does the Lop p read?
The Lop p was 3.42.

Which Lop p does the source give for `CN(c1cc(-c2ncnc(Nc3ccsc3)n2)ccn1)C1CCCC1` [Compound A34] here?
The Lop p was 1.93.

Which Lop p does the source give for `COCC(C)Nc1cc(-c2ncnc(Nc3ccc(OC)nc3)n2)ccn1` (centres unmarked) [Compound A1] here?
The Lop p was 1.3.

For `CC(C)C(C)Nc1cc(-c2ncnc(Nc3ccsc3)n2)ccn1` (centres unmarked) [Compound A17], which Lop p is on record?
The Lop p was 1.79.

Which Lop p does the source give for `CCCC(C)Nc1cc(-c2ncnc(Nc3ccsc3)n2)ccn1` (centres unmarked) [Compound A31] here?
The Lop p was 1.84.

For `CCCN(C)c1cc(-c2ncnc(Nc3ccsc3)n2)ccn1` [Compound A28], which Lop p is on record?
The Lop p was 1.63.

With `CC(C)=CCN(C)c1cc(-c2ncnc(Nc3ccsc3)n2)ccn1` [Compound A33] as the compound, how does the Lop p read?
Its Lop p is 2.14.

Which Lop p does the source give for `CN(CC1CC1)c1cc(-c2ncnc(Nc3ccsc3)n2)ccn1` [Compound A21] here?
Its Lop p is 1.75.

With `CC(C)CN(C)c1cc(-c2ncnc(Nc3ccsc3)n2)ccn1` [Compound A16] as the compound, how does the Lop p read?
Its Lop p is 1.86.

Which Lop p does the source give for `CCC(C(C)OC)N(C)c1cc(-c2ncnc(Nc3ccsc3)n2)ccn1` (centres unmarked) [Compound A22] here?
Its Lop p is 2.14.

Which Lop p does the source give for `COCC(C)Nc1cc(-c2ncnc(Nc3ccsc3)n2)ccn1` (centres unmarked) [Compound A15] here?
Its Lop p is 1.4.

Tested on: Pyrenophora teres
Test: In vivo test on Pyrenophora teres (barley net blotch)
Conditions: barley plants, sprayed 24 hours before contamination, dose 500 ppm, grading 12 days after contamination
Method: Barley plants (Express variety), sown on a 50/50 peat soil-pozzolana substrate in starter cups and grown at 12° C., are treated at the 1-leaf stage (10 cm tall) by spraying with the active ingredient prepared as described above. Plants, used as controls, are treated with an aqueous solution not containing the active material. After 24 hours, the plants are contaminated by spraying them with an aqueous suspension of Pyrenophora teres spores (12,000 spores per ml). The spores are collected from a 12-day-old culture. […] Grading is carried out 12 days after the contamination, in comparison with the control plants. Under these conditions, good (at least 70%) is observed at a dose of 500 ppm with the following compound: A14

With `CCC(C)Nc1cc(-c2ncnc(Nc3ccc(OC)nc3)n2)ccn1` (centres unmarked) [Compound A14] as the compound, how does the “protection (good, at least 70%)” value read?
Its value is “at least 70%”.
